Tests used:
[1] = tested on: walnut twig beetle (WTB), Pityophthorus juglandis; test: Example 1 Field Test 2: flight response to X with and without racemic conophthorin; format: in vivo; settings: yellow sticky card traps, Davis CA
Experimental: (§1) Field Bioassays of Semiochemicals. To test the attractiveness of the various compounds of interest, some of the commercially available materials listed above were poured into 15 ml capped polyethylene bottles (Product #s A1-1050/002, A1-1055/002; Contech Enterprises Inc., Delta, British Columbia, Canada) and attached to yellow sticky card traps (Trécé, Adair, OK). In addition, synthesized (+) and (−) enantiomers of trans-conophthorin were tested in 400 μl polyethylene Eppendorf microcentrifuge tubes. Four field studies were conducted (Table 2) that tested the flight responses to: 3-methyl-2-buten-l-ol and related isomers (Field Test 1); 3-methyl-2-buten-l-ol with and without racemic trans-conophthorin (Field Test 2); 3-methyl-2-buten-l-ol with and without the purified enantiomers of trans-conophthorin (Field Test 3); and 3-methyl-2-buten-l-ol with and without racemic chalcogran (Field Test 4).
(§2) Statistical Analysis. Field Tests 1-4 were each analyzed for treatment effect by using Friedman's non-parametric analysis of variance. (See Zar, J. H. 2010. Biostatistical Analysis, 5th Ed. Pearson Prentice Hall, New Jersey). Males and females were subjected to separate analyses. All treatments within experiments yielding a significant treatment effect were compared by using an a posteriori Nemenyi test (Zar 2010) with experimentwise α=0.05. Sex ratios of responding WTB were determined using Cochran's method for unbiased sampling (See Cochran, W. G. 1977. Sampling Techniques, 3rd ed. John Wiley, New York), with 95% confidence intervals calculated by using the Clopper-Pearson method. (See Zar, J. H. 2010. Biostatistical Analysis, 5th Ed. Pearson Prentice Hall, New Jersey).

[2] = tested on: walnut twig beetle (WTB), Pityophthorus juglandis; test: Example 1 Field Test 4: flight response to X with and without racemic chalcogran; format: in vivo; settings: yellow sticky card traps, Davis CA
Experimental: as §1, §2

WTB [3] = test: Trap height: clear plexiglass panel traps baited with X; format: in vivo, Pityophthorus juglandis; settings: 5 mg/d, 15 ml load
Experimental: Effect of Trap Height on Trap Catch. The flight response of WTB to clear plexiglass panel traps coated with Stikem Special (Seabright Labs, Emeryville, Calif.) and baited with 3-methyl-2-buten-1-ol (5 mg/d, 15 ml load, polyethylene bottle) located at three heights (2, 3, and 4 m above the forest floor) was tested. The traps were placed in the crowns of J. hindsii located in a native riparian stand at Shadow Cliffs Regional Park, Alameda Co., Calif. from early to mid-spring. Both sides of a single 23 cm×14 cm sheet of clear plexiglass were covered with Stikem Special adhesive and the sheet was hung from string at each of the 3 heights from a single J. hindsii branch. The aggregation pheromone bait was hung immediately above each trap. Each group of three traps was assigned a unique position within the stand and treated as a block in a completely randomized block design (N=22). Traps within a block were all collected on the same day; blocks were collected after 2 to 7 days (after periodic flights of WTB).
Statistical Analyses. Analyses of treatment effects for the tests of trap type were performed by using Friedman's non-parametric analysis of variance or a sign test, depending on the number of treatments. (See Zar, J. H. 2010. Biostatistical Analysis. 5th ed. Pearson Prentice Hall, Englewood Cliffs, N.J.) Analysis of treatment effects for the Rain•X experiment was performed by using a Wilcoxon paired sample test. Id. Multiple comparisons for experiments with more than two treatments were performed with an a posteriori Nemenyi test with experimentwise α=0.05. Id. In all cases, male and female WTB were analyzed separately. Proportions of female WTB responding to treatments were calculated and 95% confidence intervals determined by using the Clopper-Pearson method. Id.

WTB [4] = test: Baited vs unbaited funnel trap pairs in Tennessee and Virginia; format: in vivo, Pityophthorus juglandis; settings: 15-80 mg/d
Experimental: The efficacy of the WTB trap bait as a detection tool was tested across the United States for a range of populations of the beetle that might be biologically heterogeneous and may occur at various densities in the landscape. The information learned from these trials was instrumental in preparing the national trapping guidelines for walnut twig beetle. […] For each state, trapping was performed in areas of known WTB infestation as well as nearby localities where WTB had not been previously detected. […]
To compare the effectiveness of the bait in the eastern range of WTB, pairs of baited and unbaited traps were located in Tennessee (3 pairs, 10 repeated measures for each pair) and Virginia (4 pairs, 12 repeated measures for each pair). […] Trap catch data were analyzed with a sign test. […]

[5] = about one month late spring, N=16
[6] = about one month late summer, N=13

## CC(C)=CCO [X, 3-methyl-2-buten-1-ol]
[1]
  proportion of females responding: 0.65
[1]; [5]
  trap catches, female WTB: 459
  trap catches, male WTB: 250
[2]
  proportion of females responding: 0.69
[2]; [6]
  trap catches, female WTB: 94
  trap catches, male WTB: 43
WTB [3]; clear plexiglass panel trap at 2 m
  proportion of females responding: 0.68
WTB [3]; clear plexiglass panel trap at 3 m
  proportion of females responding: 0.64
WTB [3]; clear plexiglass panel trap at 4 m
  proportion of females responding: 0.72
WTB [4]; Tennessee, 4-unit funnel traps, N=30
  WTB detected at baited traps: 19.1 WTB/trap/week
WTB [4]; Virginia, 12-unit funnel traps, N=48
  WTB captured in baited traps: 42.3 WTB/trap/week

Source: patent publication US20130014428A1, “METHODS OF MONITORING AND CONTROLLING THE WALNUT TWIG BEETLE, PITYOPHTHORUS JUGLANDIS” (The United States of America as Represented by the …, priority 2011, published 2013)
